Values quoted from earlier work as cited in patent publication US20070173447A1, “METHOD FOR TREATING OSTEOPOROSIS BY INTRANASAL DELIVERY OF TERIPARATIDE WITH AN ANTI-RESORPTIVE AGENT” (Nastech Pharmaceutical Company Inc., priority 2005, published 2007).
Where two headings read alike, the source gives them in different places. Ends that are not written are not given here.

What was measured:
[1] = rats, intraduodenal, with 1% (w/v) saline dispersion of polycarbophil
[2] = intranasal, up to 500 μg per day for 7 days and up to 1,000 μg per day for 3 months
[3] = after feeding to rats
[4] = anesthetized rats

**Q.** Which “bioavailability increase compared to aqueous solution without polymer” value [1] does the source give for “9-desglycinamide, 8-arginine vasopressin [DGAVP]” here?
**A.** 3-5 fold

**Q.** With `CC[C@H](C)[C@H](NC(=O)[C@H](CCC(=O)O)NC(=O)[C@H](CO)NC(=O)[C@@H](NC(=O)[C@@H](N)CO)C(C)C)C(=O)N[C@@H](CCC(N)=O)C(=O)N[C@@H](CC(C)C)C(=O)N[C@@H](CCSC)C(=O)N[C@@H](Cc1cnc[nH]1)C(=O)N[C@@H](CC(N)=O)C(=O)N[C@@H](CC(C)C)C(=O)NCC(=O)N[C@@H](CCCCN)C(=O)N[C@@H](Cc1cnc[nH]1)C(=O)N[C@@H](CC(C)C)C(=O)N[C@@H](CC(N)=O)C(=O)N[C@@H](CO)C(=O)N[C@@H](CCSC)C(=O)N[C@@H](CCC(=O)O)C(=O)N[C@@H](CCCN=C(N)N)C(=O)N[C@H](C(=O)N[C@@H](CCC(=O)O)C(=O)N[C@@H](Cc1c[nH]c2ccccc12)C(=O)N[C@@H](CC(C)C)C(=O)N[C@@H](CCCN=C(N)N)C(=O)N[C@@H](CCCCN)C(=O)N[C@@H](CCCCN)C(=O)N[C@@H](CC(C)C)C(=O)N[C@@H](CCC(N)=O)C(=O)N[C@@H](CC(=O)O)C(=O)N[C@H](C(=O)N[C@@H](Cc1cnc[nH]1)C(=O)N[C@@H](CC(N)=O)C(=O)N[C@@H](Cc1ccccc1)C(=O)O)C(C)C)C(C)C` [Teriparatide, teriparatide] as the molecule, how does the safety concerns [2] read?
**A.** No safety concerns were noted

**Q.** With Phaseolus vulgaris hemagglutinin as the molecule, how does the oral bioavailability [3] read?
**A.** more than 10%

**Q.** Which nasal bioavailability ([4]; with N-acetyl-L-cysteine) does the source give for human growth hormone here?
**A.** 12.2%

**Q.** And the nasal bioavailability ([4]; without N-acetyl-L-cysteine)?
**A.** 7.5%

**Q.** Which “concentration producing ciliostasis / inhibiting ciliary motility” value (ciliary motility) does the source give for “2-alkyl-4-hydroxyquinolines [pyo compound]” here?
**A.** 50 µg/mL

**Q.** For “hPTH1-31NH2 (SVSEIQLMHNLGKHLNSMERVEWLRKKLQDV-NH2; listed as Homo sapiens)”, which “restoration of bone loss” value (ovariectomized rat model) is on record?
**A.** fully active
